Counter-ions that a name gives are not always drawn.
Experiments:
[1] = tested on: Lardoglyphus konoi; conditions: 10 ng/μl; Kuwahara et al., 1991; cited from earlier work
[2] = tested on: Dermatophagoides farinae; test: Acaricide lethal dosage bioassay; type: in vivo
[3] = tested on: Dermatophagoides pteronyssinus; test: Semi-field carpet disc lure bioassay with sticky trap; type: in vivo; conditions: 10 ng/10 μl neryl formate in hexane on filter paper v. hexane; cut pile and loop pile carpet; 1-40 min
Experimental: (§1) Initially, a bioassay was designed to test the efficacy of neryl formate in attracting populations of the American house dust mite, Dermatophagoides farinae, and the European house dust mite, D. pteronyssinus, from carpet sections. The bioassay involved the placement of D. farinae and D. pteronyssinus onto cut carpet discs (5 cm in diameter) which were placed underneath a glass Petri dish to maintain humidity. Two types of carpet (both obtained from Heuga Home Flooring BV) were tested: cut pile (Simply Soft Aquarius) and loop pile (Working Week Boucle Ink Pad). Aliquots of a 10 ng/10 μl neryl formate solution (in hexane) were used for the lure treatment, whilst hexane alone was used for the control. Both solutions were injected onto filter paper discs (2 cm diameter) and placed into the centre of the carpet discs. After an allocated time interval (1, 5, 10, 20 or 40 min), a sticky trap was placed onto the carpet to capture the mites, and subsequently placed under a microscope to record the amount and position of the mites, to ascertain if the mites had moved from their original position. Data were analysed using a generalized linear model assuming a binomial distribution with a logit link and dispersion parameter equal to 1.0 (see Table 1). The analysis of deviance for both responses was obtained using the MODEL procedure as implemented in GenStat 8.0 (Rothamsted Research).

[4] = tested on: Dermatophagoides farinae; test: as above; type: in vivo; conditions: 10 ng/10 μl neryl formate in hexane on filter paper v. hexane; cut pile and loop pile carpet; 1-40 min
Experimental: as §1

[5] = tested on: Dermatophagoides pteronyssinus; test: Y-tube olfactometer behavioural bioassay; type: in vivo; conditions: for global responses (males and females) to the arm containing neryl formate: x^2=11.025, P<0.01, n=40
Experimental: (§2) A Y-tube olfactometer was used to observe the behavioural responses elicited by house dust mites, as described previously (Skelton et al., in press). For each experiment, a treatment and control stimulus was added (1 μl) to separate filter paper discs (1.5 cm diameter), allowed to dry for 1 min, and placed into each arm of the olfactometer. A power analysis was carried out at 80% power, 95% significance; to calculate appropriate sample sizes to see 40% difference in effect (70% to treatment) (STATA 8.2 software). […] Treatments comprised: (1) chromatography fractions derived from the D. farinae extract .v. hexane, (2) neryl formate (10 & 100 ng/μl) .v. hexane, (3) a female D. farinae extract .v. neryl formate, (4) a male D. farinae extract .v. neryl formate, and (5) a female D. pteronyssinus extract .v. neryl formate. Categorical data from the Y-tube olfactometer bioassays were tested with a Chi-squared test for goodness of fit, with a Yates correction factor (preference to a particular arm) (Fowler et al., 1998). Time data were log 10-transformed prior to parametric data analysis. A three-way ANOVA (Minitab 11 for Windows) was carried out to analyse if the log time to make a decision in the treatment arm (neryl formate) was affected by the concentration of neryl formate, gender and house dust mite species studied.

[6] = tested on: Dermatophagoides farinae; test: Y-tube olfactometer behavioural bioassay; type: in vivo
Experimental: as §2

[7] = tested on: Caloglyphus polyphyllae mites; conditions: Shimizu et al., 2001; cited from earlier work
[8] = 10 ng v. hexane, x^2=6.05, P<0.05, n=20

## CCC[C@@H](C)C[C@@H](C)C[C@@H](C)C[C@@H](C)OC=O [(1R,3R,5R,7R) lardolure, (1R,3R,5R,7R)-1,3,5,7-tetramethyldecyl formate]
[1]
  concentration at which mites significantly respond: 10 ppm

## C/C=C(\C)C(=O)O[C@H]1C[C@@H](OC(C)=O)[C@@]2(C(=O)OC)CO[C@H]3[C@@H](O)[C@@](C)([C@]45O[C@@]4(C)[C@H]4C[C@@H]5O[C@@H]5OC=C[C@@]54O)[C@H]4[C@]1(CO[C@]4(O)C(=O)OC)[C@@H]32 [azadirachtin]
[2]
  mortality: little mortality

## CC(C)=CCC/C(C)=C\COC=O [neryl formate, (Z)-3,7-dimethyl-2,6-octadienyl formate]
[3]
  number of mites retrieved on sticky traps: significantly increased
[4]
  number of mites retrieved on sticky traps: significantly increased
[5]; 10 ng v. hexane, x^2=4.05, P<0.05, n=20
  response of females to neryl formate: significant response
[5]; [8]
  response of males to neryl formate: significant response
[5]; 10 ng v. hexane
  global responses (males and females) to the arm containing neryl formate: significant
[5]; 100 ng v. hexane, x^2=8.45, P<0.01, n=20
  response of females to neryl formate: significant response
[5]; 100 ng v. hexane
  global responses (males and females) to the arm containing neryl formate: significant
[5]; females, v. female D. pteronyssinus extract, x^2=0.06, P=0.80, n=16
  response to synthetic neryl formate or con-specific extract: not significantly different
[6]; [8]
  response of females to neryl formate: significant response
[6]; 10 ng v. hexane, x^2=9.025, P<0.01, n=40
  global responses of males and females to the arm containing neryl formate: significant
[6]; 100 ng v. hexane, x^2=4.225, P<0.05, n=40
  global responses of males and females to the arm containing neryl formate: significant
[6]; 100 ng v. hexane, x^2=6.05, P<0.05, n=20
  response of males to neryl formate: significant response
[6]; females, v. female D. farinae extract, x^2=1.38, P=0.24, n=18
  response to neryl formate or con-specific extract: no significant difference
[6]; males, v. male D. farinae extract, x^2=0.10, P=0.75, n=14
  response to synthetic neryl formate or con-specific extract containing naturally produced neryl formate: no significant difference

## CC(C)=CC/C=C(/C=O)CC=O [β-acaridial]
[7]
  amount at which mites significantly respond: 10 ng

From patent US8715704B2, “Lure” (London School of Hygiene & Tropical Medicine, priority 2008, dated 2014)
